# Experimental data as given in PMC6944649, “Population Pharmacokinetics, Efficacy Exposure-response Analysis, and Model-based Meta-analysis of Fenebrutinib in Subjects with Rheumatoid Arthritis” (Pharmaceutical Research, 2020).
# Columns and labels:
# BTK = tested on: BTK; set-up: method as in PMID 29484638; conditions: healthy volunteers, Phase 1; cited from earlier work
# [1] = tested on: patients with rheumatoid arthritis; test: Exposure-response (E-R) analysis of longitudinal ACR20, ACR50, ACR70 in Phase 2 trial GA29350; format: in vivo, human
# Excerpt: (§1) GA29350 (ANDES, ClinicalTrials.gov Identifier: NCT02833350) was a multicenter, Phase 2, randomized, double-blind, placebo-controlled, parallel-group, dose-ranging trial to evaluate the efficacy and safety of fenebrutinib in patients with moderate to severe active RA and an inadequate response to previous MTX therapy (cohort 1) or anti-TNF therapy (cohort 2) ([24],[25]).
# (§2) In cohort 1, 480 patients were enrolled, and were randomly assigned to 1 of 5 parallel treatment arms (3 fenebrutinib arms, 1 placebo arm, and 1 adalimumab arm). In the fenebrutinib and placebo arms, subjects received 50 mg QD, 150 mg QD, or 200 mg BID fenebrutinib tablets or placebo tablets, together with subcutaneous (SC) placebo injections every other week for 12 weeks (n = 40 in the 50 mg arm, and n = 109 to 111 in each of the other 4 arms). In the active comparator arm, patients received adalimumab 40 mg SC every other week and placebo tablets for 12 weeks. In cohort 2 (n = 98 enrolled), patients received 200 mg fenebrutinib BID or placebo tablets for 12 weeks.
# (§3) Treatment responses in RA clinical trials are commonly evaluated by the American College of Rheumatology improvement criteria for 20, 50, and 70% threshold values (ACR20, ACR50, and ACR70, respectively), which is a binary response variable, and by the Disease Activity Score with 28-joint counts (DAS28), which is a continuous variable ([27],[28]). Both types of endpoints can be measured repeatedly during the course of the treatment period. The proportion of patients achieving ACR50 responses and analysis of longitudinal DAS28 (CRP) (DAS based on 28 joints and C-reactive protein value) were evaluated as the primary, key secondary, and secondary endpoints in the Phase 2 trial, and therefore, were of primary interest among clinical efficacy endpoints modeled for fenebrutinib. The E-R analyses aimed to establish the relationship between patient-specific fenebrutinib exposure with clinical efficacy endpoints of interest. […]
# [2] = Phase 1 relative bioavailability/food effect/drug-drug interaction study (GP29832), non-compartmental analysis; format: in vivo, human; conditions: healthy volunteers
# [3] = tested on: patients with rheumatoid arthritis; test: Exposure-response (E-R) analysis of longitudinal DAS28 (CRP) in Phase 2 trial GA29350; format: in vivo, human
# Excerpt: as §1, §2, §3
# [4] = Population pharmacokinetic (popPK) analysis of fenebrutinib plasma concentrations (Phase 1 GA29347, GP29832 and Phase 2 GA29350); format: in vivo, human
# Description: Fenebrutinib plasma concentrations were determined by high performance liquid chromatography with tandem mass spectrometry (MS/MS) detection (Covance Laboratories Inc., USA). Calibration plots were linear throughout the range of 0.5 to 500 ng/mL (lower and upper limits of quantification, respectively) for fenebrutinib in human plasma. Relative standard deviation of precision was <7.8%, and the accuracy of the method was between 91.3% and 102.7%.
# Fenebrutinib plasma concentrations from subjects providing all available PK data after tablet administration in the clinical studies were integrated into the popPK analysis. The model was characterized initially in healthy subjects ([22]) from the Phase 1 multiple ascending dose (MAD) (GA29347) and a Phase 1 relative bioavailability/food effect/drug-drug interaction (GP29832, ClinicalTrials.gov Identifier: NCT02699710) studies, and later updated to incorporate the Phase 2 data from the three fenebrutinib-treated arms in patients with RA.
# The popPK model was developed by introducing features in the order of increasing complexity, beginning with very simple models (e.g. one-compartment with first-order elimination), and continuing until further improvement in model fit was not supported by the data.
# Covariate analysis first investigated the effects of pre-defined demographic, laboratory, prognostic, and treatment covariates on all the model parameters by using univariate screening. If >10% of a covariate was missing, the covariate was not included in the popPK analysis. Otherwise, the value of missing covariate observations was imputed as the median of the remaining values from an appropriate sub-population. For example, the missing baseline body weight value was imputed as the gender-adjusted median body weight of the remaining subjects. For categorical covariates, the most frequently occurring value was imputed for subjects with missing values in each trial. Concomitant proton pump inhibitor (PPI) and food were categorized as time-varying covariates, whereas the other categorical covariates were considered as baseline (non-time-varying) covariates. Next, covariates selected from the univariate screening (p value <0.05) were included in the evaluation of a full model followed by backwards elimination (p value <0.01). Effects of continuous covariates were incorporated into the model using the power function and normalized using the median of the covariate. Effects of categorical covariates were parameterized as proportional effects in the model, in which the fractional change on a model parameter was estimated, and the typical category constituted the largest proportion in the analysis population.
# The final model was determined on the basis of objective function value, physiological plausibility of model parameter estimates, numerical convergence success, parameter estimate precision (relative standard errors <50%), and visual predictive check (VPC) plots. Goodness-of-fit plots were produced to verify the general agreement of fitted values with observed data. Prediction-corrected visual predictive check (pcVPC) was performed by normalizing the observed and simulated dependent variable based on the typical population prediction for the median independent variable in the bin ([26]). The pcVPC was stratified to evaluate the covariate effects of interest, whenever applicable. […]
# Model development was carried out using first order conditional estimation with interaction (FOCE-I) as implemented in NONMEM (version 7.3, ICON Development Solutions, Ellicott City, MD). Post-processing of NONMEM analysis results was carried out in R (version 3.2.2, R Development Core Team, 2008).
# [5] = tested on: patients with rheumatoid arthritis; test: Model-based meta-analysis (MBMA) of ACR20, ACR50, ACR70; format: in vivo, human
# Description: An efficacy and safety meta-analysis database was constructed in July 2017 using publicly available data of randomized trials in RA, based on the guidelines in the Cochrane Handbook for Systematic reviews. For this, a systematic review of publicly available data from the PubMed, Cochrane Library, and Embase databases was conducted using the search term “rheumatoid arthritis”. Furthermore, an existing database that contained data published in or before 2012 ([30]) was augmented using an additional, systematic, and quality-controlled procedure to search for relevant published studies, extract their data, and add to the existing database yielding pertinent data published through 2017.
# The summary data of the database were explored systematically to determine the amount of data available for each treatment, efficacy and safety endpoint across trials, distribution of mean patient characteristics, and to graphically view the time course of longitudinal endpoints, placebo effect, active treatment effect from each of the comparator treatments, and the effects of patient and trial characteristics. Response rates of ACR20, ACR50, and ACR70 in terms of the proportion of patients achieving specified thresholds were the most prevalent efficacy endpoints in the database, and therefore, were chosen as the variables for model development using MBMA. Because of the relatively few adverse events observed in the fenebrutinib Phase 2 trial in RA ([24]), MBMA for safety events, such as serious infections, was not conducted.
# The model simultaneously fit ACR20, ACR50, and ACR70 longitudinal data, and a non-linear mixed effects (NLME) estimation method was carried out using R. This hierarchical regression model used maximum likelihood estimation, and multiple levels of heterogeneity were described as mixed effect variability terms accommodating between-trial and within-trial variability. […]
# The adequacy of model fits across trials was evaluated by visually inspecting time course plots of observed distributions vs. predicted values. […]
# [6] = set-up: method as in PMID 29484638; conditions: Phase 1, cited from earlier work
molecule,measurement,setting,value
C[C@H]1CN(C2COC2)CCN1c1ccc(Nc2cc(-c3ccnc(N4CCn5c(cc6c5CC(C)(C)C6)C4=O)c3CO)cn(C)c2=O)nc1 [fenebrutinib],inhibition of BTK,BTK,dose- and concentration-dependent inhibition
same,Max drug effect over time - Eastern Europe,"[1]; ACR20/50/70 E-R model θ9, logit scale",1.39
same,Max drug effect over time - Latin America,[1]; ACR20/50/70 E-R model θ14,2.06
same,efficacy versus exposure (ACR responses and DAS28 (CRP)),"[1]; graphical exploration and model-based simulation, cohort 1 MTX-IR patients, exposure range of Phase 2 study",plateau of efficacy was achieved
same,PPI effect on Cmax,[2],PPI decreases the Cmax
same,food effect on concentration-time profile and Tmax,[2],food blunts the concentration-time profile and delays the Tmax
same,Time of 50% drug effect,[3]; DAS28 (CRP) E-R model θ4,47 days
same,Maximum drug effect over time (DAS28),[3]; DAS28 (CRP) E-R model θ6,-0.964
same,ω2Max drug effect,"[3]; DAS28 (CRP) E-R model ω2.2, inter-individual variability",0.283
same,apparent clearance (CL/F) decrease with concomitant administration of PPI,[4]; concomitant PPI,33.7%
same,CL/F: Apparent systemic clearance,"[4]; final popPK model estimate θ1, oral, typical RA patient",19.5 L/h
same,NTR: Number of transit compartments,"[4]; final popPK model estimate θ7, transit compartment absorption model",14.9
same,MTT: Mean transit time,[4]; final popPK model estimate θ8,0.849 h
same,Food effect on MTT,"[4]; final popPK model estimate θ11, covariate effect",1.43
same,PPI effect on MTT,"[4]; final popPK model estimate θ12, concomitant proton pump inhibitor",0.835
same,PPI and food effect on MTT,[4]; final popPK model estimate θ13,2.26
same,PPI effect on F1,"[4]; final popPK model estimate θ14, F1 relative extent of absorption",0.657
same,PPI and food effect on F1,[4]; final popPK model estimate θ15,0.693
same,Food effect on NTR,[4]; final popPK model estimate θ16,0.864
same,Tablet effect on NTR,"[4]; final popPK model estimate θ17, formulation effect",0.049
same,Vd/F,"[4]; human, plasma, oral, final popPK model estimate θ2, read-out: V1/F: Apparent central volume of distribution",381 L
same,ω^2CL/F,[4]; inter-individual variability ω1.1,0.0732
same,ω^2V1/F,[4]; inter-individual variability ω2.2,0.100
same,ω^2MTT,[4]; inter-individual variability ω8.8,0.0861
same,ω^2F1,[4]; inter-individual variability ω9.9,0.131
same,ω^2IOV on F1,[4]; inter-occasion variability ω10.1,0.299
same,higher apparent clearance in healthy subjects than patients with RA,[4]; two Phase 1 studies vs Phase 2 trial,52%
same,"efficacy in terms of ACR20, ACR50, and ACR70 compared to the registrational doses of adalimumab and tofacitinib","[5]; MBMA simulation, 200 mg BID, TNF-IR patients, 12 weeks after initiation of treatment",comparable efficacy
same,"ED50, dose at which 50% of efficacy",[5]; calculated from E-R EC50 and fixed in MBMA model,525 mg/week
same,accumulation,[6]; following twice daily dosing,modest accumulation
same,increase of plasma exposures with dose,[6]; healthy subjects,approximately dose-proportionally
same,steady-state half-life,[6]; healthy subjects,4.2 to 9.9 h
same,time of peak plasma concentrations after oral administration,[6]; healthy subjects,1 to 3 h
adalimumab [reference compound],"ACR20, ACR50, and ACR70 response rates in arm of the fenebrutinib Phase 2 trial versus historical data","[5]; adalimumab 40 mg SC every other week arm, MBMA",consistent with historical data
